Measurements published in ChEMBL document CHEMBL1201862, “PubChem BioAssay data set” (2004).
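The compound was tested at five concentrations on cells cultured in 96-well plates, with a 48-hour exposure period. GI50 = concentration required for 50% inhibition of growth.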 Calls of active or inactive are those of the source. Rule as the data show it: active = GI50 up to about 1.1 µM and inactive = higher.

How the values were obtained:
Assay in all cases: NCI anticancer screen, dose series, 48 h
A549 = tested on: A549
DU-145 = tested on: DU-145
EKVX = tested on: EKVX
HCT-116 = tested on: HCT-116
HT-29 = tested on: HT-29
KM12 = tested on: KM12
MCF7 = tested on: MCF7
Malme-3M = tested on: Malme-3M
NCI-H23 = tested on: NCI-H23
NCI-H460 = tested on: NCI-H460
NCI/ADR-RES = tested on: NCI/ADR-RES
PC-3 = tested on: PC-3
SF-295 = tested on: SF-295
SK-MEL-2 = tested on: SK-MEL-2
SN12C = tested on: SN12C
SNB-19 = tested on: SNB-19
UACC-257 = tested on: UACC-257
UO-31 = tested on: UO-31
SF-539 = tested on: SF-539
SR = tested on: SR

Measured: GI50

NCCC(=O)N[C@@H](Cc1cc(O)c(O)c(SCC(NC(=O)CC[C@H](N)C(=O)O)C(=O)NCC(=O)O)c1)C(=O)O (stereo partly specified)
inactive: A549 > 50 µM | DU-145 > 50 µM | EKVX > 50 µM | HCT-116 > 50 µM | HT-29 > 50 µM | KM12 > 50 µM | MCF7 > 50 µM | Malme-3M > 50 µM | NCI-H23 > 50 µM | NCI-H460 > 50 µM | NCI/ADR-RES > 50 µM | PC-3 > 50 µM | SF-295 > 50 µM | SK-MEL-2 > 50 µM | SN12C > 50 µM | SNB-19 > 50 µM | UACC-257 > 50 µM | UO-31 > 50 µM

CCOC(=O)c1cnc2oc3ccc(O)cc3c2c1-c1ccccc1
inactive: A549 32.4 µM | DU-145 > 100 µM | EKVX 57.3 µM | HCT-116 57.8 µM | HT-29 71.6 µM | MCF7 44.7 µM | Malme-3M 23 µM | NCI-H23 32.7 µM | NCI-H460 13.2 µM | PC-3 18 µM | SF-295 37.2 µM | SF-539 17.3 µM | SK-MEL-2 15.1 µM | SN12C 37.9 µM | SNB-19 52.4 µM | SR 22.6 µM | UACC-257 > 100 µM

O=C(O)c1ccccc1NC(=S)c1ccccc1
inactive: A549 51.3 µM | DU-145 > 100 µM | EKVX 37.8 µM | HCT-116 48.3 µM | HT-29 37.8 µM | KM12 50.2 µM | MCF7 31.3 µM | Malme-3M 19.1 µM | NCI-H23 80.9 µM | NCI-H460 53.2 µM | NCI/ADR-RES 51.1 µM | PC-3 34.5 µM | SF-295 35.2 µM | SF-539 44.4 µM | SN12C 66.4 µM | SNB-19 48.5 µM | UACC-257 29.7 µM | UO-31 51.8 µM

CNC(=O)c1nn[nH]c1Sc1c([N+](=O)[O-])ncn1C
inactive: A549 > 100 µM | DU-145 > 100 µM | EKVX > 100 µM | HCT-116 > 100 µM | HT-29 > 100 µM | KM12 > 100 µM | MCF7 > 100 µM | NCI-H23 > 100 µM | NCI-H460 > 100 µM | NCI/ADR-RES > 100 µM | PC-3 > 100 µM | SF-295 > 100 µM | SF-539 > 100 µM | SK-MEL-2 > 100 µM | SN12C > 100 µM | SNB-19 > 100 µM | UACC-257 > 100 µM | UO-31 > 100 µM

CSc1scc2c1/C(=N/NC(N)=O)CCC2
inactive: A549 78.3 µM | DU-145 45.2 µM | HCT-116 70 µM | HT-29 > 100 µM | KM12 86.1 µM | MCF7 90.4 µM | NCI-H23 > 100 µM | NCI-H460 94.4 µM | NCI/ADR-RES 20.1 µM | PC-3 93.5 µM | SF-295 60.5 µM | SF-539 > 100 µM | SK-MEL-2 > 100 µM | SN12C > 100 µM | SNB-19 > 100 µM | UACC-257 > 100 µM | UO-31 > 100 µM

COc1cc(/C=C2\S/C(=N/Nc3nc(-c4ccc(Br)cc4)cs3)NC2=O)cc(OC)c1OC
inactive: A549 13.6 µM | DU-145 19.3 µM | EKVX 7.8 µM | HCT-116 4.49 µM | HT-29 18.4 µM | KM12 7.73 µM | MCF7 15.4 µM | NCI-H23 5.11 µM | NCI-H460 11.9 µM | NCI/ADR-RES 15.9 µM | PC-3 4.03 µM | SF-295 12.4 µM | SF-539 8.83 µM | SK-MEL-2 15.1 µM | SN12C 28.6 µM | SNB-19 4.74 µM | UACC-257 18.2 µM | UO-31 3.91 µM
